Earlier results in patent US20240400555A1 (Initial Therapeutics, Inc., priority 2023, published 2024).

Experiments:
MM cell = settings: in vitro; cited from earlier work
xenografts of human MM = settings: in vivo; cited from earlier work

For `O=C(c1cc(Cc2n[nH]c(=O)c3ccccc23)ccc1F)N1CCN(C(=O)C2CC2)CC1` [olaparib], the MM cell viability (MM cell) is given as “impaired MM cell viability in vitro” and the “efficacy against xenografts of human MM” value (xenografts of human MM) is given as “effective against in vivo xenografts of human MM”.
